Data from patent publication US8377984B2, “Substituted gamma lactams as therapeutic agents” (Allergan, Inc., priority 2008, dated 2013).
pEC50, pKi: −log10 of the molar value.

What was measured:
normotensive dogs = assay: Ocular surface hyperemia (OSH) in normotensive dogs; assay type: in vivo; settings: 0.003%
Method: In Vivo Data (S)-5-(3-(1-(4-hexylphenyl)-5-oxopyrrolidin-2-yl)propyl)thiophene-2-carboxylic acid 2-hydroxyethyl ester (3) was tested in normotensive dogs at 0.003%, dosing once daily for 5 days. The maximum intraocular pressure (IOP) decrease from baseline was 5.9 mmHg (36%) at 54 h; the maximum ocular surface hyperemia (OSH) score was 1.1 at 74 h. This compound was also tested in laser-induced hypertensive monkeys, using one single day dose. At 0.003%, the maximum IOP decrease from baseline was 17 mmHg (44%) at 6 h.
(S)-5-(3-(1-(4-hexylphenyl)-5-oxopyrrolidin-2-yl)propyl)thiophene-2-carboxylic acid (9) was tested in normotensive dogs at 0.003%, dosing once daily for 5 days. The maximum intraocular pressure (IOP) decrease from baseline was 4.7 mmHg (29%) at 6 h; the maximum ocular surface hyperemia (OSH) score was 1.9 at 76 h. This compound was also tested in laser-induced hypertensive monkeys, using one single day dose. At 0.003%, the maximum IOP decrease from baseline was 9 mmHg (23%) at 6 h.
(S)-5-(3-(1-(4-hexylphenyl)-5-oxopyrrolidin-2-yl)propyl)thiophene-2-carboxylic acid isopropyl ester was tested in normotensive dogs at 0.003%, dosing once daily for 4 days. The maximum intraocular pressure (IOP) decrease from baseline was 3.9 mmHg (24%) at 30 h; the maximum ocular surface hyperemia (OSH) score was 0.7 at 28 h. This compound was also tested in laser-induced hypertensive monkeys, using one single day dose. At 0.003%, the maximum IOP decrease from baseline was 12 mmHg (28%) at 6 h.

EP2 [1] = molecular target: T1, EP2 (Homo sapiens, UniProt P43116); assay: EP2 binding (Ki)
T1 sequence (P43116 whole entry): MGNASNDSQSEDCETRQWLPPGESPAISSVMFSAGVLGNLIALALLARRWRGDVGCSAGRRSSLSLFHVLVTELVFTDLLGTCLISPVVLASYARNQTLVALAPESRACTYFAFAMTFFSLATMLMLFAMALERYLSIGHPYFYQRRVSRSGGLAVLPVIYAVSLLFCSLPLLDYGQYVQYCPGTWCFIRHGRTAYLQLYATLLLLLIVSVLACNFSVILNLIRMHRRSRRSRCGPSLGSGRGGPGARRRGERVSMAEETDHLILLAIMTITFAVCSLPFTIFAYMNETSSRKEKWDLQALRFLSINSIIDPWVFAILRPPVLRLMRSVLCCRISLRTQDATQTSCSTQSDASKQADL

hDP = molecular target: T2, hDP (Homo sapiens, UniProt Q13258); assay: Other receptors, hDP; assay type: cell-based
T2 sequence (Q13258 1-359): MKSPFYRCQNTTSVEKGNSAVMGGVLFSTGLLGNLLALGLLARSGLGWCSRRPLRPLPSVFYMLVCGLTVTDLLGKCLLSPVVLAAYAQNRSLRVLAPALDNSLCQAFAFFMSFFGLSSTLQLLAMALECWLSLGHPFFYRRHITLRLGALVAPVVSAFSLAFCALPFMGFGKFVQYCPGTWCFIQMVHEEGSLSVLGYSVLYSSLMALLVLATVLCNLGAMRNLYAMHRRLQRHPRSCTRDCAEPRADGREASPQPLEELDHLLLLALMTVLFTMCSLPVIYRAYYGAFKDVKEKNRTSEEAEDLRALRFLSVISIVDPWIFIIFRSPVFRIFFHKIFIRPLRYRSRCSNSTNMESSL

EP4 [2] = molecular target: T3, EP4 (Homo sapiens, UniProt P35408); assay: EP4 flipr; assay type: cell-based
T3 sequence (P35408 whole entry): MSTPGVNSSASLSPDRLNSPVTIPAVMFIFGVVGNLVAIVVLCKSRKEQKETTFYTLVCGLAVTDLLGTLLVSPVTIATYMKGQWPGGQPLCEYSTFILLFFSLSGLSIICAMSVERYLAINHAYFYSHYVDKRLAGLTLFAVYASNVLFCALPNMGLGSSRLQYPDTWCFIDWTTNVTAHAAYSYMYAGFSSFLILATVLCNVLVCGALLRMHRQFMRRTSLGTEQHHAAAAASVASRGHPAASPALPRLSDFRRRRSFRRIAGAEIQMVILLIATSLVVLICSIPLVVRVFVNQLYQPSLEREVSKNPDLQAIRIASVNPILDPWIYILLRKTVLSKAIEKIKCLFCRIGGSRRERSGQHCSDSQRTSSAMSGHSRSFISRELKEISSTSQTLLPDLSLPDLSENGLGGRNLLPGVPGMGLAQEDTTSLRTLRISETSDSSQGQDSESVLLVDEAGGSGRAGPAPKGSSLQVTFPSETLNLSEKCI

EP2 [3] = molecular target: T1, EP2; assay: EP2 flipr; assay type: cell-based
EP2 [4] = molecular target: T1, EP2; assay: EP2 cAMP; assay type: cell-based
EP4 [5] = molecular target: T3, EP4; assay: EP4 binding (Ki)
hEP3A = molecular target: T4, hEP3A (Homo sapiens, UniProt P43115); assay: Other receptors, hEP3A; assay type: cell-based
T4 sequence (P43115 1-390): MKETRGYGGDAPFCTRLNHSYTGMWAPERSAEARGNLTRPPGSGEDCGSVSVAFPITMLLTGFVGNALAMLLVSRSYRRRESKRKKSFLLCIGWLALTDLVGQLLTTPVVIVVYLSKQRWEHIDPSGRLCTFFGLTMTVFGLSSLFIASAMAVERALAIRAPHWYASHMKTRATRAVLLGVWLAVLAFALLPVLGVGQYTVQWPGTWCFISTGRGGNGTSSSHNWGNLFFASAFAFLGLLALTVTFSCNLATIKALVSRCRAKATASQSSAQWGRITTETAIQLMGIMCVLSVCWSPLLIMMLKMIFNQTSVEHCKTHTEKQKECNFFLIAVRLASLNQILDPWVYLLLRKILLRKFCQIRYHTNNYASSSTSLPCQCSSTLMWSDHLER

With `CCCCCCc1ccc(N2C(=O)CC[C@@H]2CCCc2ccc(C(=O)OC(C)C)s2)cc1` [(S)-5-(3-(1-(4-hexylphenyl)-5-oxopyrrolidin-2-yl)propyl)thiophene-2-carboxylic acid isopropyl ester] the “maximum ocular surface hyperemia (OSH) score” value (normotensive dogs; once daily for 4 days, at 28 h) was 0.7.

With `CCCCCCc1ccc(N2C(=O)CC[C@@H]2CCCc2ccc(C(=O)OCCO)s2)cc1` [Compound 3, (S)-5-(3-(1-(4-hexylphenyl)-5-oxopyrrolidin-2-yl)propyl)thiophene-2-carboxylic acid 2-hydroxyethyl ester] the “maximum ocular surface hyperemia (OSH) score” value (normotensive dogs; once daily for 5 days, at 74 h) was 1.1.

`CCCCCCc1ccc(N2C(=O)CC[C@@H]2CCCc2ccc(C(=O)O)s2)cc1` [Compound 9, (S)-5-(3-(1-(4-hexylphenyl)-5-oxopyrrolidin-2-yl)propyl)thiophene-2-carboxylic acid] showed a pKi (EP2 [1]) of 8.52, an EC50 (hDP) of 389 nM and a pEC50 (EP4 [2]) of 4.95. For the same molecule, the “maximum ocular surface hyperemia (OSH) score” value (normotensive dogs; once daily for 5 days, at 76 h) was 1.9, the pEC50 (EP2 [3]) was 8.30 and the pEC50 (EP2 [4]) was 9.30. The pKi (EP4 [5]) was 5.58 and the EC50 (hEP3A) was 1550 nM.
